Activity calls are given as the source filed them. The rule behind the calls is not given here.
How the values were obtained:
[1] = Binding affinity to recombinant His-tagged human cytosolic GPX4 U46C mutant expressed in Escherichia coli M15 by SPR analysis
[2] = target: T1, Phospholipid hydroperoxide glutathione peroxidase GPX4 (Homo sapiens) (UniProt P36969); assay: Activation of GPX4 in A23187-stimulated human PMN leukocytes assessed as increase in 12-HETE preincubated for 15 mins followed by A23187 addition and measured after 120 mins by LC-MS analysis
T1 sequence (whole entry): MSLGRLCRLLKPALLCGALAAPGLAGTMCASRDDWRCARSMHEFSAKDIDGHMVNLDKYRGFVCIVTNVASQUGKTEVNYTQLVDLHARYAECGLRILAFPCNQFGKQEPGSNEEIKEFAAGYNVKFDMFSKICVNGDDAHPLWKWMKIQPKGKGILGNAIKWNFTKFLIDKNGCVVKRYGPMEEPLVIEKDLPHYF

[3] = target: T2, Prostaglandin G/H synthase 2 (Homo sapiens) (UniProt P35354); assay: Inhibition of COX2 (unknown origin) at 500 uM preincubated for 15 mins followed by arachidonic acid substrate addition in presence of TMPD by spectrophotometric method
T2 sequence (whole entry): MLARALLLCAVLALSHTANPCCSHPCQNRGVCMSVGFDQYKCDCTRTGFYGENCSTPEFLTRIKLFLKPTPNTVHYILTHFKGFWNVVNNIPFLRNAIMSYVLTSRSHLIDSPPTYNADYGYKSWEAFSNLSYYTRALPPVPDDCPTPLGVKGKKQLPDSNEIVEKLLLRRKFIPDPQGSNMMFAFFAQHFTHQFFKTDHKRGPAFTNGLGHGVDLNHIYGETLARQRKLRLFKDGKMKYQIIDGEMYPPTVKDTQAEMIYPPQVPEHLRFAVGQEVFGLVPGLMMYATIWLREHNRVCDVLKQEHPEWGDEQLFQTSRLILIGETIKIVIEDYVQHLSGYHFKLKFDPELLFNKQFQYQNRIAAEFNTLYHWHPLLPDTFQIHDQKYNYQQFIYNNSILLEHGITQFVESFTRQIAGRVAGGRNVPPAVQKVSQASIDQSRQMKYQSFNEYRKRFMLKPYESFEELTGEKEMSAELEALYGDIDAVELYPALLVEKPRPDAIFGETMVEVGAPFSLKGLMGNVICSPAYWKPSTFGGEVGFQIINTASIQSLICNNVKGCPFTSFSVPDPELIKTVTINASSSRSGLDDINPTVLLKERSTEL

[4] = target: T3, Polyunsaturated fatty acid 5-lipoxygenase (Homo sapiens) (UniProt P09917); assay: Inhibition of human 5-LOX at 500 uM preincubated for 10 mins followed by arachidonic acid substrate addition in presence of H2DCFDA by spectrophotometric method
T3 sequence (whole entry): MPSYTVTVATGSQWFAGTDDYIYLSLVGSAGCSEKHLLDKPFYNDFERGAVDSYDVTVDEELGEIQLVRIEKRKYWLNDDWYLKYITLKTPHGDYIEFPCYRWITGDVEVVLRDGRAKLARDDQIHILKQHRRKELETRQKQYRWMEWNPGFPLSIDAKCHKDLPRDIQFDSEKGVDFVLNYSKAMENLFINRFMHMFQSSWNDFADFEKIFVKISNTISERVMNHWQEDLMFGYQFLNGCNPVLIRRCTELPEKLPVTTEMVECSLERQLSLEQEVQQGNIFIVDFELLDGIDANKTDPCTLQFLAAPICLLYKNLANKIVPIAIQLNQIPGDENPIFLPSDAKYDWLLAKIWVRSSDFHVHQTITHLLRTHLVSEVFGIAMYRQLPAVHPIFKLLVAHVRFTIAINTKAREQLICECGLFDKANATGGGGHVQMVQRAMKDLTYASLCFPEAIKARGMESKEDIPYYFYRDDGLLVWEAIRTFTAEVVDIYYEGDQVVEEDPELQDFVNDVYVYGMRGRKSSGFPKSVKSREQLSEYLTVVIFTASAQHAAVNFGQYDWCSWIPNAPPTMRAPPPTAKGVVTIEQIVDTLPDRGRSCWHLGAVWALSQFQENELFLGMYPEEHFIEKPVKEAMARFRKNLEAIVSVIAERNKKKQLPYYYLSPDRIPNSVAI

[5] = target: T4, Polyunsaturated fatty acid lipoxygenase ALOX12 (Homo sapiens) (UniProt P18054); assay: Inhibition of 12-LOX (unknown origin) at 500 uM preincubated for 1 mins followed by arachidonic acid substrate addition by spectrophotometric method
T4 sequence (whole entry): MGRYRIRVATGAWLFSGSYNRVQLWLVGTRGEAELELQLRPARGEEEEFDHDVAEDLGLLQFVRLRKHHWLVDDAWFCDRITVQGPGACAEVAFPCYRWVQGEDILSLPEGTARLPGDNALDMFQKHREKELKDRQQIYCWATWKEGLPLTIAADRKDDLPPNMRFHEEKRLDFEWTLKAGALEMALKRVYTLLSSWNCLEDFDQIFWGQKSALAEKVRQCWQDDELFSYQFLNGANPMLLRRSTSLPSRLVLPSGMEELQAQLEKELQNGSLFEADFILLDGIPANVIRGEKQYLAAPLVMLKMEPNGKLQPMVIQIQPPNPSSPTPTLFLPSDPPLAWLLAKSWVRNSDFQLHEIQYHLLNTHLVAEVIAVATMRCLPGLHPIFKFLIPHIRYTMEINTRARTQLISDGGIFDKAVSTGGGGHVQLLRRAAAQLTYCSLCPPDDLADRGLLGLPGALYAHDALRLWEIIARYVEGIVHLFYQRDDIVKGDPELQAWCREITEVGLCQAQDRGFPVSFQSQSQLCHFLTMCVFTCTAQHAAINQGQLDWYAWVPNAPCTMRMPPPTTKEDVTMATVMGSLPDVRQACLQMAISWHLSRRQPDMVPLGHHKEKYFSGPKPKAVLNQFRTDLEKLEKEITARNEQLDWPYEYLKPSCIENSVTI

[6] = target: T1, Phospholipid hydroperoxide glutathione peroxidase GPX4 (Homo sapiens); assay: Activation of GPX4 (unknown origin) expressed in HEK293T cells harboring luc2P/NF-kBRE/Hygro plasmid assessed as inhibition of TNFalpha-stimulated NFkB activation preincubated for 30 mins followed by TNFalpha addition and measured after 6 hrs by luciferase reporter gene assay; format: cell-based
Homo sapiens = organism: Homo sapiens; assay: Activation of recombinant human GPX4 D23A/U46C double mutant expressed in Escherichia coli M15 assessed as increase in oxidized glutathione-mediated oxidation of NADPH to NADP+ using tert-butyl hydroperoxide as substrate preincubated for 5 mins followed by substrate addition measured for 6 mins by glutathione reductase enzyme coupled fluorescence assay relative to GPX4 U46C mutant control
[7] = target: Phospholipid hydroperoxide glutathione peroxidase GPX4 (Mus musculus) (UniProt O70325); assay: Activation of GPX4 in MEF assessed as increase in oxidized glutathione-mediated oxidation of NADPH to NADP+ using tert-butyl hydroperoxide as substrate preincubated for 5 mins followed by substrate addition measured for 6 mins by glutathione reductase enzyme coupled fluorescence assay; format: cell-based
Chain of Phospholipid hydroperoxide glutathione peroxidase GPX4 (Mus musculus) (O70325 whole entry): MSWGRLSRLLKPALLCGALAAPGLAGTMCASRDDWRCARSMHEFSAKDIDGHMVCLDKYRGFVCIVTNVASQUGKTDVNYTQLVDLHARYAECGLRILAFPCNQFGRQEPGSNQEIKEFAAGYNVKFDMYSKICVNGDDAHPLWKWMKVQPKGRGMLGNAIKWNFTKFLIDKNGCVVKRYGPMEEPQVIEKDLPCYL

[8] = Iron chelating activity assessed as compound-Fe2+ complex formation after 10 mins by Prussian blue assay
[9] = target: Phospholipid hydroperoxide glutathione peroxidase GPX4 (Mus musculus) (UniProt O70325); assay: Activation of GPX4 in MEF assessed as increase in […] protection against CHOOH-induced cell death at 200 uM; format: cell-based
[10] = Antioxidant activity assessed as DPPH radical scavenging activity at 500 uM; format: functional

## NS(=O)(=O)c1ccc(NC(S)=NCc2ccc(Cl)cc2)cc1
[1]
  Kd: 63 µM
[2]
  Activity: Dose-dependent effect
[3]
  inhibition: inactive
[4]
  inhibition: inactive
[5]
  inhibition: inactive
[6]
  inhibition: Dose-dependent effect
Homo sapiens
  EC150: 372 µM
[7]
  Activity: Dose-dependent effect
[8]
  Activity: inactive
[9]
  Activity: Active
[10]
  Activity: inactive

Source: ChEMBL document CHEMBL4308834, “Novel Allosteric Activators for Ferroptosis Regulator Glutathione Peroxidase 4” (J Med Chem, 2018)
